What was measured:
HER4(ErbB4) = HER4(ErbB4) (Homo sapiens, UniProt Q15303); assay: In vitro enzyme activity, HER4 (radiometric, Eurofins); format: biochemical; conditions: conclusion
Procedure: (§1) The purpose of this assay is to detect the in vitro inhibitory activity of compounds on HER1(ErbB1), HER2(ErbB2), and HER4(ErbB4). The enzymes used in this assay are human ErbB 1, ErbB2 and ErbB4. Eurofins Pharma Discovery Service provided the method for activity detection. Steps and method of the assay (96-well plate): A buffer solution of the assay compounds in a dilution of 5-fold (5 μL), polypeptide substrate poly(Glu, Tyr) (4:1) (2.5 μL), ErbB (4-20 ng, 2.5 μL), MnCl2 (50 mM, 1.25 μL), dH2O (3.75 μL), and [γ-^33P]ATP (10 μL) were added, and incubated at 30° C. for 10 minutes. The reaction was terminated by adding 3% phosphoric acid. 10 μL of the sample was taken and transferred to Filtermate A. The filter disc was washed 3 times with 75 mM phosphoric acid and once with methanol. The filter disc was transferred to a sealed plastic bag and the scintillation mixture (4 mL) was added. The intensity of the emitted photon was detected by a scintillation luminescence counter. The CPM (times/min) of the enzyme sample was compared with the CPM of the internal control sample. The level of photon intensity reflected the degree of the tyrosine kinase activity.

HER1(ErbB1) = HER1(ErbB1) (Homo sapiens, UniProt P00533); assay: In vitro enzyme activity, HER1 (radiometric, Eurofins); format: biochemical; conditions: conclusion
Procedure: as §1

[1] = tested on: subcutaneous xenograft tumor of human gastric cancer NCI-N87 cells; assay: In vivo pharmacodynamics, NCI-N87 subcutaneous xenograft (Assay Example 3); design: species or system mouse
Procedure: Purpose of the assay: in vivo efficacy of the assay compound disclosed herein on subcutaneous xenograft tumor of human gastric cancer NCI-N87 cells in a BALB/c nude mouse model was evaluated.
Animals of the assay: female BALB/c nude mice, 6-8 weeks old, weighted 18-22 grams; supplier: Shanghai Ling Chang Biotechnology Co., Ltd.
(§2) Human gastric cancer NCI-N87 cells were cultured in monolayer in vitro. The culture conditions were RPMI-1640 medium plus 10% fetal bovine serum, 100 U/mL penicillin, 100 U/mL streptomycin and 2 mM glutamine, 37° C., 5% CO2. The passaging was performed by the conventional digestion with trypsin-EDTA twice a week. When the cell saturation was 80%-90%, the cells were collected, counted and inoculated.
0.2 mL (10×10^6) of NCI-N87 cells (PBS+Matrigel, 1:1) were inoculated subcutaneously on the right back of each nude mouse. When the average tumor volume reached 158 mm^3, administration to each group was started.
The assay compounds were formulated into 0.04 mg/mL and 0.08 mg/mL clear solution in the solvents of 10% NMP (N-methylpyrrolidone)+10% ethylene glycol stearate+80% water.
The assay index was to investigate whether tumor growth is inhibited, delayed or cured. Tumor diameter was measured twice a week with a vernier caliper. The calculation formula of tumor volume was: V=0.5a×b^2, wherein a and b represent the long and short diameters of tumor, respectively.
The antitumor efficacy of the compounds was evaluated by TGI (%) or tumor proliferation rate T/C (%). TGI (%) reflects tumor growth inhibition rate. […]
Statistical analysis included mean and standard error of mean (SEM) of tumor volume at each time point in each group (See Table 13 for specific data). […] The comparison between groups was analyzed by T-test, and the comparison among three or more groups was analyzed by one-way ANOVA. […]

HER2(ErbB2) = HER2(ErbB2) (Homo sapiens, UniProt P04626); assay: In vitro enzyme activity, HER2 (radiometric, Eurofins); format: biochemical; conditions: conclusion
Procedure: as §1

[2] = tested on: subcutaneous xenograft tumor of human esophageal carcinoma OE21 cells; assay: In vivo pharmacodynamics, OE21 subcutaneous xenograft (Assay Example 5); design: species or system mouse
Procedure: Purpose of the assay: in vivo efficacy of the assay compound on subcutaneous xenograft tumor of human esophageal carcinoma OE21 cells in a BALB/c nude mouse model was evaluated.
Animals of the assay: female BALB/c nude mice, 6-8 weeks old, weighted 17-23 grams; supplier: shanghai sippr bk laboratory animals Ltd.
as §2, with “esophageal carcinoma OE21” for “gastric cancer NCI-N87”, “by” for “by the”
0.1 ml […] OE21 cells (PBS) were inoculated subcutaneously on the right back of each mouse. When the average tumor volume reached 112 mm^3, administration to each group was started.
The assay compound was formulated into a 0.15 mg/mL to 0.3 mg/mL clear or suspension solution in the solvents of 10% NMP+10% ethylene glycol stearate+80% water.
The assay index was to investigate whether tumor growth is inhibited, delayed or cured. Tumor diameter was measured twice a week with vernier caliper. The calculation formula of tumor volume was: V=0.5a×b^2, wherein a and b represent the long and short diameters of tumor, respectively.
The antitumor efficacy of the compounds was evaluated by TGI (%) or relative tumor proliferation rate T/C (%). TGI (%) reflects the tumor growth inhibition rate. TGI (%) was calculated as follows: TGI (%)=[(1−average tumor volume at the end of administration for a certain treatment group−average tumor volume at the beginning of administration for this treatment group))/(average tumor volume at the end of treatment for a vehicle control group−average tumor volume at the beginning of administration for this vehicle control group)]×100%.
Relative tumor proliferation rate T/C (%): the calculation formula was as follows: T/C (%)=average tumor volume at the end of administration for a certain treatment group/average tumor volume at the end of treatment for the vehicle control group×100%.
Statistical analysis included the mean and standard error of mean (SEM) of tumor volume at each time point in each group. One-way ANOVA was used for comparison among three or more groups. […] SPSS 17.0 was used for all data analysis. p<0.05 was considered a significant difference.

Chain of HER4(ErbB4) (Q15303 26-1308): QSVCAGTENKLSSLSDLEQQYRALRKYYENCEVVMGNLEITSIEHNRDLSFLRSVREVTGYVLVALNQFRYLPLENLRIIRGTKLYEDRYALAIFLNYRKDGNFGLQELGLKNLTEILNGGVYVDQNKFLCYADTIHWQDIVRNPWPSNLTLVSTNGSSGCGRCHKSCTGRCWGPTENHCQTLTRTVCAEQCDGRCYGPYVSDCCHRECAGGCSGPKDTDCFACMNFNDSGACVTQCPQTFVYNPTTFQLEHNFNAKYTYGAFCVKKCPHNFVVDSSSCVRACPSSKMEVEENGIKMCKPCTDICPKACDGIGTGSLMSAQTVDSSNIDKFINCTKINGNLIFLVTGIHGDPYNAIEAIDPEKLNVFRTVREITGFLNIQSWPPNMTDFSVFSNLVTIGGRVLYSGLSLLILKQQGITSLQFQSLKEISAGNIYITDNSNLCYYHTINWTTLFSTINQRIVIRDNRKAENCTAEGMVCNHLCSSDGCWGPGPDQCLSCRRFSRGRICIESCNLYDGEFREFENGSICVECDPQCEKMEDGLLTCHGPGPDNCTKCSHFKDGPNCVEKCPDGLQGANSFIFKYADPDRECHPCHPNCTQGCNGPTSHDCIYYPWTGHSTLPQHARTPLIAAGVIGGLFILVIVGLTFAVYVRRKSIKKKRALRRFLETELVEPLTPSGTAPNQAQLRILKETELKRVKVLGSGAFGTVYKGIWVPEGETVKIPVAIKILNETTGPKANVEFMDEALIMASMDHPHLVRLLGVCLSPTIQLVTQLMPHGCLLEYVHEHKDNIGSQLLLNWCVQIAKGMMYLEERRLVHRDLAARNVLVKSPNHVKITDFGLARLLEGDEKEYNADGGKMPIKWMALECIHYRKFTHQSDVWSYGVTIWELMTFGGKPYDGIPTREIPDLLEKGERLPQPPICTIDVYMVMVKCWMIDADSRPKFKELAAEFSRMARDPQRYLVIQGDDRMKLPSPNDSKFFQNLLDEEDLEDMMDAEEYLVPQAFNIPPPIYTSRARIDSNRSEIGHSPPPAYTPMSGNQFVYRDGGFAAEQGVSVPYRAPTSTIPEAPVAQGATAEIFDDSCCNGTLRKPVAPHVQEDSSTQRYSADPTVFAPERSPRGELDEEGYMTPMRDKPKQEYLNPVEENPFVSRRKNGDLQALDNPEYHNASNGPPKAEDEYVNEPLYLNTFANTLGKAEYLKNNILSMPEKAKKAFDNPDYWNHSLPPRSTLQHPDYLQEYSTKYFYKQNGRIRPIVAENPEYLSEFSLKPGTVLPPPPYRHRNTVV
Chain of HER2(ErbB2) (P04626 23-1255): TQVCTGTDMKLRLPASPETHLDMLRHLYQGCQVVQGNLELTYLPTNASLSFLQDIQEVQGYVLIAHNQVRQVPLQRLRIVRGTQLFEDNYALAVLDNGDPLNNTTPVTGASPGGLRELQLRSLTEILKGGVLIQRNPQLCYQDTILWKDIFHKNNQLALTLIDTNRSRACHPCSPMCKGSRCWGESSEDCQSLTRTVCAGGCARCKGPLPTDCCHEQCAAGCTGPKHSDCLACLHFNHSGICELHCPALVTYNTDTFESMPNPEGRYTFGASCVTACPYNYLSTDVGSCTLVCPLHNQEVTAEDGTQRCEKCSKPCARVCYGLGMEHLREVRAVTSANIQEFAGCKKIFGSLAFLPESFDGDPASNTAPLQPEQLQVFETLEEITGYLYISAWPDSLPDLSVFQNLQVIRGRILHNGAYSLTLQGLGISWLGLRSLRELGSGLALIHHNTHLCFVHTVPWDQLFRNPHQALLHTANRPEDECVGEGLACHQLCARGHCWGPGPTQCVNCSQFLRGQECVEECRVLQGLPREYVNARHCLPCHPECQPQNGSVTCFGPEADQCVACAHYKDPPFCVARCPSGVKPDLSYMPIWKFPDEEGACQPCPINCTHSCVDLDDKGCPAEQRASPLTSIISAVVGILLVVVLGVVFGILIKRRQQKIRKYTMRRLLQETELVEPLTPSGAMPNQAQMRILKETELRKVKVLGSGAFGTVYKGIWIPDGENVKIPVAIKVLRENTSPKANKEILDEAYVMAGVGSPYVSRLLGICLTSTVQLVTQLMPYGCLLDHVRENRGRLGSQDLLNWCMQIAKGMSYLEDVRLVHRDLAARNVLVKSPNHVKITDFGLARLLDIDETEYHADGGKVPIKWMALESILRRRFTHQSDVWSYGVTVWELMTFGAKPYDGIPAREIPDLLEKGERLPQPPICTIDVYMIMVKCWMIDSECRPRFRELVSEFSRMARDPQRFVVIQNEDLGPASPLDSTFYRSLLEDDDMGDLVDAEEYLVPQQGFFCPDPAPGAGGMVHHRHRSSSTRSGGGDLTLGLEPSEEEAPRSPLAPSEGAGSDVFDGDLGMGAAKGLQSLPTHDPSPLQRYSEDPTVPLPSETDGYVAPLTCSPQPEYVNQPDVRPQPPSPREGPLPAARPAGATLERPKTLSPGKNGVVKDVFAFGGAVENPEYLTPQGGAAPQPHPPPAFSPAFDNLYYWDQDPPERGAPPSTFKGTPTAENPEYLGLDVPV
Chain of HER1(ErbB1) (P00533 25-1210): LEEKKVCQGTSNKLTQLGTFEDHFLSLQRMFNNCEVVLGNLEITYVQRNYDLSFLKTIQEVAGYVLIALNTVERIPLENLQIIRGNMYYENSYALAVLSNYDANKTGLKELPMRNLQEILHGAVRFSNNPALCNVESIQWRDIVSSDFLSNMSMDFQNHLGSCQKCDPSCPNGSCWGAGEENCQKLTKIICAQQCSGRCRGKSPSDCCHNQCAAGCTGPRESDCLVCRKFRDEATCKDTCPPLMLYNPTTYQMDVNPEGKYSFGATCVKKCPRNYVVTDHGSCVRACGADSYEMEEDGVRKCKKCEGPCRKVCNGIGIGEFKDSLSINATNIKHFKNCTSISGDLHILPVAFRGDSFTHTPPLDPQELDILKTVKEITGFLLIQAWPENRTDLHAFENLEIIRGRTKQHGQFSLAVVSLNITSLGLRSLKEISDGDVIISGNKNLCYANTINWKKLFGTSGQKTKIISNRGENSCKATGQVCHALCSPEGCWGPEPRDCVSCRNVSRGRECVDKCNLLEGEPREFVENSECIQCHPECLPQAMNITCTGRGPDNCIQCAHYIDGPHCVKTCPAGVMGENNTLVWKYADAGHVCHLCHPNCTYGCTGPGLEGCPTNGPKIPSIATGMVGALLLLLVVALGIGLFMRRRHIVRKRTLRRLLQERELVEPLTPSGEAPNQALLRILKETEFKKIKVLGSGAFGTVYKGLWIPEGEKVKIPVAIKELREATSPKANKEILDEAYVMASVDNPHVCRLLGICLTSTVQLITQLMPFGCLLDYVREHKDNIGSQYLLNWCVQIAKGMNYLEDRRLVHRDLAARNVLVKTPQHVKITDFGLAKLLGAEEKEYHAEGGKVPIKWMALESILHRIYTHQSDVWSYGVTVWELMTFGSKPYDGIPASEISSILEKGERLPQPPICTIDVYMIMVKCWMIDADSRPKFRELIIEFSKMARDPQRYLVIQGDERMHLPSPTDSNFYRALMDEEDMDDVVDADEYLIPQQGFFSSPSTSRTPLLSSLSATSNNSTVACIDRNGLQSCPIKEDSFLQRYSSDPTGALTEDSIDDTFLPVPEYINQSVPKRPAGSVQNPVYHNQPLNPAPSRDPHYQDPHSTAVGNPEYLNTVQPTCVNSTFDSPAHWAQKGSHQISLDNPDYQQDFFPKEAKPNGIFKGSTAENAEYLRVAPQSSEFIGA

## C=CC(=O)N1[C@@H]2CC[C@H]1C[C@H](Nc1cc3c(Nc4ccc(Cl)c(Cl)c4F)ncnc3cc1OC)C2 [Compound of formula (I)]
HER4(ErbB4)
  inhibitory activity on HER4 (in words): significant inhibitory activity
HER1(ErbB1)
  inhibitory activity on HER1 (in words): significant inhibitory activity
[1]; 0.8 mg/kg, compared with the vehicle control group
  tumor inhibitory effect (in words): significant tumor inhibitory effect
[1]; low-dose group (0.4 mg/kg)
  drug efficacy compared with Poziotinib (in words): comparable to or better than the reference compound Poziotinib
HER2(ErbB2)
  inhibitory activity on HER2 (in words): significant inhibitory activity
[2]; 2/1.5 mg/kg
  body weight and clinical signs (in words): varying degrees of body weight loss and dandruff
[2]; 2/1.5 mg/kg, compared with the vehicle control group
  tumor inhibitory effect (in words): significant tumor inhibitory effect
[2]; 2/1.5 mg/kg, Day 21, Mean + SEM
  Tumor volume (Day 21): 55 ± 13 mm3
[2]; discussion, high-dose group
  effect on the body weight of mice (in words): little effect on the body weight of mice
[2]; low dose of 0.5 mpk
  efficacy at low dose (in words): comparable to that of the reference compound Poziotnib and the compound of formula (I) at a high dose of 1.5 mpk
[2]; mouse, in vivo
  dark yellow urine, suggestion of toxicity (in words): without the toxicity suggestion of dark yellow urine
